Assay results: patent US20030186870A1, “Therapeutic methods and compositions for the treatment of impaired interpersonal and behavioral disorders” (priority 1999, published 2003)
Where no end group is shown, it is not given here.

Experiments:
male Wistar rats = assay: Irwin test; assay type: in vivo, rat; details: tail vein injection
Procedure: An Irwin test was performed on 12 male Wistar rats (Iffa Credo, L'Arbresles, France), weighing 260-280 g. They were housed in groups of 4 in a climate controlled room with a 12h light:dark cycle (light 8:00 PM-8:00 AM) and had access to food and water ad libitum. After a seven day acclimatization period, the rats were weighed, identified and randomly assigned to one of the four treatment groups. The drug was injected to the tail vein of the rats according to the group dose.
Observations were performed 15, 30, 60 and 120 minutes after administration. Among the most noticeable results are the results concerning the awareness state of the rats.

male rats = details: cited from earlier work

Row | Compound | aggressiveness (male Wistar rats) | locomotion (male rats; high doses) | anxiolytic-like effect (male rats; low doses)
1 | QHNPR [FG-005, Gln-His-Asn-Pro-Arg] | not associated with an increase of aggressiveness | – | –
2 | CC[C@H](C)[C@@H]1NC(=O)[C@H](Cc2ccc(O)cc2)NC(=O)[C@@H](N)CSSC[C@@H](C(=O)N2CCC[C@H]2C(=O)N[C@@H](CC(C)C)C(=O)NCC(N)=O)NC(=O)[C@H](CC(N)=O)NC(=O)[C@H](CCC(N)=O)NC1=O [oxytocin] | – | decrease locomotion | anxiolytic-like effect
